Results reported in ChEMBL document CHEMBL1201862, “PubChem BioAssay data set” (2004).
One block for each molecule: values may come before it. Active and inactive are the calls of the source.

Key:
Insulin-degrading enzyme [1] = biological target: T1, Insulin-degrading enzyme (Homo sapiens, UniProt P14735); test: activators of recombinant IDE enzyme, dose response, counter-screen for IDE activator project, biochemical, fluorescence polarization (AID 588681)
T1 sequence (P14735 whole entry): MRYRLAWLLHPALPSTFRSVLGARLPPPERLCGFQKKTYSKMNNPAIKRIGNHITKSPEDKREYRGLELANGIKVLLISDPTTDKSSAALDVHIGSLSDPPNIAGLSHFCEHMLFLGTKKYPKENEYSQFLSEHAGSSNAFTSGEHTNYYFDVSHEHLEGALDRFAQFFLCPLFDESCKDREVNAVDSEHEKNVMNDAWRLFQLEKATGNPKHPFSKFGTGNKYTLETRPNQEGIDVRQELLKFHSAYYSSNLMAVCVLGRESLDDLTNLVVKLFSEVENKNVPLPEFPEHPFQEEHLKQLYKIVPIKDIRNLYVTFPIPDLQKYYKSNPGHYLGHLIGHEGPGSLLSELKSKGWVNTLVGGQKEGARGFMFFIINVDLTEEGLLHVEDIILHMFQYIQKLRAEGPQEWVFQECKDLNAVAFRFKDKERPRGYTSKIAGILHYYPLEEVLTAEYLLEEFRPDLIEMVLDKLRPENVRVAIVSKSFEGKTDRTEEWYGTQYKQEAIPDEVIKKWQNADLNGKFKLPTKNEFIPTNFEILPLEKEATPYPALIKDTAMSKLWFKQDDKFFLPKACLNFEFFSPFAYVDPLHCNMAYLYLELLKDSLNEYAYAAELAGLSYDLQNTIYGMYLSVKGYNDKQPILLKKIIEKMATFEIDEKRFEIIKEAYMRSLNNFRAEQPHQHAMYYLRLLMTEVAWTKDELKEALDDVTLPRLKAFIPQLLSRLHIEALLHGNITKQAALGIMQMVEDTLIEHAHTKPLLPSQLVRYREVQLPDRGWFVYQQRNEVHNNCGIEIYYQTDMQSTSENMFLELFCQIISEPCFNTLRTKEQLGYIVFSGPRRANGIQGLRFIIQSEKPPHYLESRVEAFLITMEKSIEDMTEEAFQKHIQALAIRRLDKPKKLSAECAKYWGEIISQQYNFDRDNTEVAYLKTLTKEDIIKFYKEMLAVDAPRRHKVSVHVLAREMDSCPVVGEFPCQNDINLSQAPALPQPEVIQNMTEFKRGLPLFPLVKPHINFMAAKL

Insulin-degrading enzyme [2] = biological target: T1, Insulin-degrading enzyme; test: activators of endogenous IDE in HEK cells, dose response, cell-based, fluorescence polarization (AID 588439); assay type: functional
[3] = biological target: T2, Multidrug resistance protein CDR2 (Candida albicans (strain SC5314 / ATCC MYA-2876) (Yeast), UniProt P78595); test: CaCDR2 efflux pump inhibitors in yeast, dose response, S. cerevisiae AD1-8u, singleplex, Cherry Pick1 hits (AID 588604); assay type: functional
HEK293 [4] = test: HEK cell cytotoxicity by LDH release, dose response, cytotoxicity control for IDE activator project, fluorescence, HEK cells (AID 588440); assay type: functional, cell-based; settings: Homo sapiens;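 note: cytotoxicity by LDH release measuring loss of membrane integrity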
HEK293 [5] = test: optical interference in Abeta FP readout, dose response, artefact control for IDE activator project, biochemical, fluorescence polarization (AID 588442); assay type: functional, cell-based; settings: Homo sapiens
Melanocortin receptor 4 = Melanocortin receptor 4 (Homo sapiens, UniProt P32245); assay type: functional, cell-based;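 note: Cell-based assay with luminescence read-out, confirmatory dose-response testing for agonist activity of biased ligands at MC4R; human U2OS cells with tagged receptor and beta-arrestin; potency of agonists that increase receptor coupling to beta-arrestin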
[6] = biological target: T2, Multidrug resistance protein CDR2; test: CaCDR2 efflux pump inhibitors in yeast, dose response, S. cerevisiae AD1-8u, singleplex, Cherry Pick2 set (AID 623994); assay type: functional; settings: read-out: EC50_MICROM
[7] = biological target: T3, Neuropeptides B/W receptor type 1 (Homo sapiens, UniProt P48145); test: GPR7 antagonist potency, late-stage follow-up, cell-based, fluorescence, dose response, set 5 (AID 588566); assay type: functional
T3 sequence (P48145 whole entry): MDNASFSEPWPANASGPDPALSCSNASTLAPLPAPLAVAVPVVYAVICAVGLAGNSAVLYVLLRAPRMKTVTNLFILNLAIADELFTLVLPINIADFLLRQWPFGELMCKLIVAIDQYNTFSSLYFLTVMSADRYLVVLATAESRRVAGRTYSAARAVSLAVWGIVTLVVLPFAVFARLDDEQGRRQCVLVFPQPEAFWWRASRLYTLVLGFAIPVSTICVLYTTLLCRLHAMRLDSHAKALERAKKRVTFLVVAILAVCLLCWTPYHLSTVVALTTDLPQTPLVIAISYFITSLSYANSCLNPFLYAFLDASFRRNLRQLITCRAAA

[8] = biological target: Melanin-concentrating hormone receptor 1 (Homo sapiens, UniProt Q99705); test: Late-stage fluorescence-based counterscreen for antagonists of the G-protein coupled receptor 7 (GPR7): cell-based dose response assay to identify antagonists of the melanin-concentrating hormone receptor 1 (MCHR1) Set 5.; assay type: functional
[9] = biological target: Protein kinase C theta type (Homo sapiens, UniProt Q04759); test: Navigating the Kinome. Panel member name: PRKCQ; assay type: functional
[10] = biological target: Dual specificity protein kinase CLK2 (Homo sapiens, UniProt P49760); assay type: functional
[11] = biological target: Dual specificity mitogen-activated protein kinase kinase 1 (Homo sapiens, UniProt Q02750); test: Navigating the Kinome. Panel member name: MAP2K1; assay type: functional
[12] = biological target: Tyrosine-protein kinase JAK2 (Homo sapiens, UniProt O60674); assay type: functional;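 note: JAK2 tested as one member of a kinase panel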
[13] = biological target: Serine/threonine-protein kinase TBK1 (Homo sapiens, UniProt Q9UHD2); test: Navigating the Kinome. Panel member name: TBK1; assay type: functional
[14] = biological target: 5'-AMP-activated protein kinase catalytic subunit alpha-1 (Homo sapiens, UniProt Q13131); assay type: functional
[15] = biological target: ALK tyrosine kinase receptor (Homo sapiens, UniProt Q9UM73); assay type: functional;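 note: ALK tested as one member of a kinase panel screen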
[16] = biological target: Tyrosine-protein kinase receptor TYRO3 (Homo sapiens, UniProt Q06418); assay type: functional;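 note: TYRO3 value obtained as one member of a kinome-wide profiling panel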
[17] = biological target: Serine/threonine-protein kinase D3 (Homo sapiens, UniProt O94806); assay type: functional;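 note: determined within a kinase panel screen, with PRKCN as the panel member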
[18] = biological target: Tyrosine-protein kinase Lck (Homo sapiens, UniProt P06239); assay type: functional;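 note: lck was assayed as one member of a kinase panel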
[19] = biological target: Death-associated protein kinase 3 (Homo sapiens, UniProt O43293); assay type: functional;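 note: measured as one member of a kinome-wide profiling panel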
Activin receptor type-1 = Activin receptor type-1 (Homo sapiens, UniProt Q04771); test: Navigating the Kinome. Panel member name: ACVR1; assay type: functional
[20] = biological target: Mitogen-activated protein kinase 8 (Homo sapiens, UniProt P45983); assay type: functional;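 note: value comes from one member of a kinome-wide kinase profiling panel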
[21] = biological target: Serine/threonine-protein kinase pim-1 (Homo sapiens, UniProt P11309); assay type: functional
[22] = biological target: Serine/threonine-protein kinase PAK 4 (Homo sapiens, UniProt O96013); assay type: functional;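 note: value obtained within a kinome profiling panel in which PAK4 was one of the panel members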
[23] = biological target: Fibroblast growth factor receptor 1 (Homo sapiens, UniProt P11362); assay type: functional
[24] = biological target: Tyrosine-protein kinase JAK3 (Homo sapiens, UniProt P52333); assay type: functional
[25] = biological target: Mitogen-activated protein kinase 9 (Homo sapiens, UniProt P45984); assay type: functional;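 note: value from a kinome panel profiling assay, MAPK9 panel entry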
LIM domain kinase 1 = LIM domain kinase 1 (Homo sapiens, UniProt P53667); test: Navigating the Kinome. Panel member name: LIMK1; assay type: functional
[26] = biological target: Serine/threonine-protein kinase TAO1 (Homo sapiens, UniProt Q7L7X3); assay type: functional
[27] = biological target: High affinity nerve growth factor receptor (Homo sapiens, UniProt P04629); assay type: functional;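 note: NTRK1 tested as one member of a kinome-wide profiling panel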
[28] = biological target: Glycogen synthase kinase-3 alpha (Homo sapiens, UniProt P49840); assay type: functional;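 note: GSK3A result taken from a broad kinome-wide kinase panel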
[29] = biological target: Mitogen-activated protein kinase kinase kinase kinase 2 (Homo sapiens, UniProt Q12851); assay type: functional;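 note: measured as one member of a kinome-wide kinase panel, with MAP4K2 as the panel entry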
[30] = biological target: Hepatocyte growth factor receptor (Homo sapiens, UniProt P08581); assay type: functional;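 note: kinase panel profiling across the kinome, with MET as the panel member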
Activated CDC42 kinase 1 = Activated CDC42 kinase 1 (Homo sapiens, UniProt Q07912); test: Navigating the Kinome. Panel member name: ACK1; assay type: functional
[31] = biological target: Receptor-type tyrosine-protein kinase FLT3 (Homo sapiens, UniProt P36888); assay type: functional;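 note: FLT3 was tested as one member of a kinome-wide kinase panel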
[32] = biological target: Serine/threonine-protein kinase Chk1 (Homo sapiens, UniProt O14757); assay type: functional;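 note: measured as one member of a kinome-wide kinase profiling panel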
[33] = biological target: Tyrosine-protein kinase ABL1 (Homo sapiens, UniProt P00519); assay type: functional
[34] = biological target: Vascular endothelial growth factor receptor 2 (Homo sapiens, UniProt P35968); assay type: functional
[35] = biological target: G protein-coupled receptor kinase 5 (Homo sapiens, UniProt P34947); test: Navigating the Kinome. Panel member name: GPRK5; assay type: functional
[36] = biological target: Cyclin-dependent kinase 5 (Homo sapiens, UniProt Q00535); assay type: functional;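 note: CDK5 measured as one member of a kinase profiling panel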
[37] = biological target: Insulin-like growth factor 1 receptor (Homo sapiens, UniProt P08069); test: Navigating the Kinome. Panel member name: IGF1R; assay type: functional
[38] = biological target: Dual specificity tyrosine-phosphorylation-regulated kinase 1B (Homo sapiens, UniProt Q9Y463); test: Navigating the Kinome. Panel member name: DYRK1B; assay type: functional
[39] = biological target: cAMP-dependent protein kinase catalytic subunit PRKX (Homo sapiens, UniProt P51817); assay type: functional
[40] = biological target: Platelet-derived growth factor receptor alpha (Homo sapiens, UniProt P16234); test: Navigating the Kinome. Panel member name: PDGFRA; assay type: functional
[41] = biological target: Leucine-rich repeat serine/threonine-protein kinase 2 (Homo sapiens, UniProt Q5S007); assay type: functional;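 note: value from a broad kinome-wide panel profiling study in which LRRK2 was one of the kinases tested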
Aurora kinase B = Aurora kinase B (Homo sapiens, UniProt Q96GD4); assay type: functional
[42] = biological target: Rho-associated protein kinase 1 (Homo sapiens, UniProt Q13464); assay type: functional;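 note: measured within a broad kinome-wide panel profiling many kinases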
[43] = biological target: Tyrosine-protein kinase Fyn (Homo sapiens, UniProt P06241); assay type: functional
[44] = biological target: Serine/threonine-protein kinase Nek2 (Homo sapiens, UniProt P51955); assay type: functional
[45] = biological target: Cyclin-dependent kinase 8 (Homo sapiens, UniProt P49336); test: Navigating the Kinome. Panel member name: CDK8; assay type: functional
[46] = biological target: Cyclin-dependent kinase 7 (Homo sapiens, UniProt P50613); assay type: functional;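 note: value comes from a kinome-wide kinase profiling panel in which CDK7 is one member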
[47] = biological target: Vascular endothelial growth factor receptor 1 (Homo sapiens, UniProt P17948); assay type: functional;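 note: measured within a kinome-wide profiling panel, FLT1 as the panel member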
[48] = biological target: Glycogen synthase kinase-3 beta (Homo sapiens, UniProt P49841); assay type: functional;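 note: value comes from a broad kinome profiling panel, with GSK3B as the panel member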
[49] = biological target: BDNF/NT-3 growth factors receptor (Homo sapiens, UniProt Q16620); assay type: functional;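 note: NTRK2 measured as one member of a broad kinome-wide kinase profiling panel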
[50] = biological target: Dual specificity protein kinase CLK4 (Homo sapiens, UniProt Q9HAZ1); assay type: functional
[51] = biological target: Macrophage-stimulating protein receptor (Homo sapiens, UniProt Q04912); test: Navigating the Kinome. Panel member name: MST1R; assay type: functional
[52] = biological target: Macrophage colony-stimulating factor 1 receptor (Homo sapiens, UniProt P07333); assay type: functional;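 note: value comes from the Navigating the Kinome screening panel, CSF1R member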
[53] = biological target: Dual specificity mitogen-activated protein kinase kinase 2 (Homo sapiens, UniProt P36507); test: Navigating the Kinome. Panel member name: MAP2K2; assay type: functional
[54] = biological target: Inhibitor of nuclear factor kappa-B kinase subunit epsilon (Homo sapiens, UniProt Q14164); test: Navigating the Kinome. Panel member name: IKBKE; assay type: functional
[55] = biological target: Calcium/calmodulin-dependent protein kinase type II subunit alpha (Homo sapiens, UniProt Q9UQM7); test: Navigating the Kinome. Panel member name: CAMK2A; assay type: functional
[56] = biological target: Leukocyte tyrosine kinase receptor (Homo sapiens, UniProt P29376); test: Navigating the Kinome. Panel member name: LTK; assay type: functional
[57] = biological target: Mitogen-activated protein kinase 14 (Homo sapiens, UniProt Q16539); assay type: functional;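 note: part of a kinome-wide panel, MAPK14 entry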

T2 sequence (P78595 whole entry): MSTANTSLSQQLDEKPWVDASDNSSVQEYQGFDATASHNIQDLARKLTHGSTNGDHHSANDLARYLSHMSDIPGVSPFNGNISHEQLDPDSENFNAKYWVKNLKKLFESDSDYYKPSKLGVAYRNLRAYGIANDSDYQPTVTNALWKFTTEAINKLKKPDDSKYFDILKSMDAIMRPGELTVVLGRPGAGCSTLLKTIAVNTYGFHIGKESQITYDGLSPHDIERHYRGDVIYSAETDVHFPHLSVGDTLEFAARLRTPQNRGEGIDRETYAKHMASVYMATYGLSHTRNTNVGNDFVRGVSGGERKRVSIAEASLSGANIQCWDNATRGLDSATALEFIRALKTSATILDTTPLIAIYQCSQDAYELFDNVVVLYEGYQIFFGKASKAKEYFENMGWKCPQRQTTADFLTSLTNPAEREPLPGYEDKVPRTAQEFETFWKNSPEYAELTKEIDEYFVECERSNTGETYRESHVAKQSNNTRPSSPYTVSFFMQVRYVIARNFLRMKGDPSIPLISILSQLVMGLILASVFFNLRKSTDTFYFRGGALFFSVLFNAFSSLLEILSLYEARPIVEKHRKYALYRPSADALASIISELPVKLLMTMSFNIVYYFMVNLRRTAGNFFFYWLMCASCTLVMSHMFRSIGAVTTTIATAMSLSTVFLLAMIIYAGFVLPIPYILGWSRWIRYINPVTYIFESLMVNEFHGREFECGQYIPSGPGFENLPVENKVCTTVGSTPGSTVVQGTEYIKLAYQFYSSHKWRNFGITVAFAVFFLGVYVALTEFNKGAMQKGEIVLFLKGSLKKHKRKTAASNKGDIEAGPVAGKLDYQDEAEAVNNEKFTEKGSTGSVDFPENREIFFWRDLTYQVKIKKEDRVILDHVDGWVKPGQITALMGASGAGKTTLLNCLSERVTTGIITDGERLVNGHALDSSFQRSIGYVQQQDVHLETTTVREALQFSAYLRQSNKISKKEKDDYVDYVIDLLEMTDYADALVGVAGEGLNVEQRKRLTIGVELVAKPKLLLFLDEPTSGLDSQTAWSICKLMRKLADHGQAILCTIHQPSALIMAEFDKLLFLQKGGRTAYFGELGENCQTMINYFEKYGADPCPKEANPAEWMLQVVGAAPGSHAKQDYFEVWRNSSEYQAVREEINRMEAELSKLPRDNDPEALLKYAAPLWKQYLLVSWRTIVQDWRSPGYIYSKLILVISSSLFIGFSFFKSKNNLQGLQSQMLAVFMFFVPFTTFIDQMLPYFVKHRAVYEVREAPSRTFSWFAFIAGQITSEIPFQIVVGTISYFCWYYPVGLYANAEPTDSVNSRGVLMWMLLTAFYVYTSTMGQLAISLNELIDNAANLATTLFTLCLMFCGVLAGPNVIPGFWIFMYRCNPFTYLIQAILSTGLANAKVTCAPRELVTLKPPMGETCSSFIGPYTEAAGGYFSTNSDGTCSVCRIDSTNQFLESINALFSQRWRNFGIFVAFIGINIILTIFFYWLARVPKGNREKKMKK
Chain of Dual specificity mitogen-activated protein kinase kinase 1 (Q02750 whole entry): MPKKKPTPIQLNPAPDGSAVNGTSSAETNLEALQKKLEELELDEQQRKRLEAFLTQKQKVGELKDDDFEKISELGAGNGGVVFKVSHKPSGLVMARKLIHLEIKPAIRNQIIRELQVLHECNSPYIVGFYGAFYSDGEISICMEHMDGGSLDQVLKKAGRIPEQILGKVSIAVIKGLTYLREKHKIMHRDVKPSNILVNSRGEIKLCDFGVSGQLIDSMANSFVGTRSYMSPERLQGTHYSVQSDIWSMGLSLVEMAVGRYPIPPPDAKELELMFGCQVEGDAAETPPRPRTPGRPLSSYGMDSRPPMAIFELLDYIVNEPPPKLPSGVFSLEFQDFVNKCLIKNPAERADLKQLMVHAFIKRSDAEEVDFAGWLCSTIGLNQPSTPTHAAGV
Chain of Activated CDC42 kinase 1 (Q07912 whole entry): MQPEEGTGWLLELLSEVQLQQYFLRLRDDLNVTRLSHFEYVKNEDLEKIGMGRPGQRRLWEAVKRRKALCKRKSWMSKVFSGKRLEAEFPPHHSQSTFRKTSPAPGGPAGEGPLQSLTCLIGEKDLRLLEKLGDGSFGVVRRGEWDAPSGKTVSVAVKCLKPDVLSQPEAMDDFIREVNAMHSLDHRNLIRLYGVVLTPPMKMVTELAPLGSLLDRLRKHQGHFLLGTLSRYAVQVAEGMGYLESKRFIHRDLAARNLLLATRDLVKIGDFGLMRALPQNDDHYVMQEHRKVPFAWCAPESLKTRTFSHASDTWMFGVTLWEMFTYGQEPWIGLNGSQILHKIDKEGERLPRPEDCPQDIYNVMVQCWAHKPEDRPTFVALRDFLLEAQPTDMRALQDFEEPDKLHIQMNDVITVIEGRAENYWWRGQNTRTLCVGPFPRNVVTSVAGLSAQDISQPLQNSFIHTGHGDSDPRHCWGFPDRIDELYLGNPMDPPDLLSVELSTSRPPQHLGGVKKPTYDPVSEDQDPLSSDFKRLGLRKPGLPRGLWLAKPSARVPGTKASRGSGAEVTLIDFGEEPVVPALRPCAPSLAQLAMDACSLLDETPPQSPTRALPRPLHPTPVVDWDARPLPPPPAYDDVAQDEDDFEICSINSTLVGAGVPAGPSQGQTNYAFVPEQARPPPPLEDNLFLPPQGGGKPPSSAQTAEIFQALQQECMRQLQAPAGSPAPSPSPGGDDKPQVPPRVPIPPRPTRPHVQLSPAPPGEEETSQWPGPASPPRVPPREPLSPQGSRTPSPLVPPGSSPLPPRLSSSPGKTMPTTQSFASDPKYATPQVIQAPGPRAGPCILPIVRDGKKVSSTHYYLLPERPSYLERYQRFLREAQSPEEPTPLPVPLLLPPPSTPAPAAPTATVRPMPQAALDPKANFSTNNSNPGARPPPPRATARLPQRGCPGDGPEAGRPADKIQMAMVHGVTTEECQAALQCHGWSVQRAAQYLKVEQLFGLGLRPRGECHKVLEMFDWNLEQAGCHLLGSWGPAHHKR
Chain of Platelet-derived growth factor receptor alpha (P16234 whole entry): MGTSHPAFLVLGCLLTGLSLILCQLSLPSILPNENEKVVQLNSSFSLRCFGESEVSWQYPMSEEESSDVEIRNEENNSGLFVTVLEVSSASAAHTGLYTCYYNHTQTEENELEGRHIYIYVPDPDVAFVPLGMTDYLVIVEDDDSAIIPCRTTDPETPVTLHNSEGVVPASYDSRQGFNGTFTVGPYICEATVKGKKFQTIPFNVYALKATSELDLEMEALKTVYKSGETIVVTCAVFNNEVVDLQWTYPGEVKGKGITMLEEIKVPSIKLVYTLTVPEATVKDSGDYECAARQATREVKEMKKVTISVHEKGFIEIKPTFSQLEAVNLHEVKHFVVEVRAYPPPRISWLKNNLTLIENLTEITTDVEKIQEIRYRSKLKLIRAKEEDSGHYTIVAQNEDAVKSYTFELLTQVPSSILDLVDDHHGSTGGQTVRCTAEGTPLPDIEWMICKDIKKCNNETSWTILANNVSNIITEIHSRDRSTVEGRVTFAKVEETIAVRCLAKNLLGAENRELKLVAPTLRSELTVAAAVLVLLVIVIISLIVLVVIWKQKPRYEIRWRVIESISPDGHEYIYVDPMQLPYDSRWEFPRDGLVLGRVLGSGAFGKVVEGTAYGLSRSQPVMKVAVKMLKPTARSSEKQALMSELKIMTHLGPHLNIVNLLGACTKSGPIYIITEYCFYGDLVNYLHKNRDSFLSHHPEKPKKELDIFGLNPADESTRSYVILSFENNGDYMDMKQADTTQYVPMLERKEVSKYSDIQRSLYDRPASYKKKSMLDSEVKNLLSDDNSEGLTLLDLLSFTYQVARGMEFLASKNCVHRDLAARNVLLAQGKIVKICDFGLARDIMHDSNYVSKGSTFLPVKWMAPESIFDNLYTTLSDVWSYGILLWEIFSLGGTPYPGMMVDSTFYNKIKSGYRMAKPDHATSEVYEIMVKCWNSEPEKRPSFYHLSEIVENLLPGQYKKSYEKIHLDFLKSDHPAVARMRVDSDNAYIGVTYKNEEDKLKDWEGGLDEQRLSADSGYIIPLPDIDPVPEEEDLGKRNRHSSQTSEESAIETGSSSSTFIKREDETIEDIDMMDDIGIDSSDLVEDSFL
Chain of G protein-coupled receptor kinase 5 (P34947 whole entry): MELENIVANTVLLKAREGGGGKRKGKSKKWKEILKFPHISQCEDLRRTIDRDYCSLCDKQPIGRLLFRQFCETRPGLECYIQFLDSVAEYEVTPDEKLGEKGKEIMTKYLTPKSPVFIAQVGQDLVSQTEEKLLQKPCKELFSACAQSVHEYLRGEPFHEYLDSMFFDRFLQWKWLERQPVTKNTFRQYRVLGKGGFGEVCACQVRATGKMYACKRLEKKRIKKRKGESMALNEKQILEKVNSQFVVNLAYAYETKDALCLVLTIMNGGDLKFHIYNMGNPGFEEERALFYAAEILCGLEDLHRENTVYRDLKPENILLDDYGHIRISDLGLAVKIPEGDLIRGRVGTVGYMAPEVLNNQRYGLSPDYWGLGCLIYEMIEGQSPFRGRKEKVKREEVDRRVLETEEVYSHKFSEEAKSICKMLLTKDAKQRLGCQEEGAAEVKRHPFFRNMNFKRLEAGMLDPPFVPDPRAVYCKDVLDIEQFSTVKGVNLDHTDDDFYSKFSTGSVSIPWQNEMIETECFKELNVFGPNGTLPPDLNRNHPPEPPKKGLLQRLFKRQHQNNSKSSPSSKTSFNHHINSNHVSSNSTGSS
Chain of Mitogen-activated protein kinase 9 (P45984 whole entry, the tested form may be a part): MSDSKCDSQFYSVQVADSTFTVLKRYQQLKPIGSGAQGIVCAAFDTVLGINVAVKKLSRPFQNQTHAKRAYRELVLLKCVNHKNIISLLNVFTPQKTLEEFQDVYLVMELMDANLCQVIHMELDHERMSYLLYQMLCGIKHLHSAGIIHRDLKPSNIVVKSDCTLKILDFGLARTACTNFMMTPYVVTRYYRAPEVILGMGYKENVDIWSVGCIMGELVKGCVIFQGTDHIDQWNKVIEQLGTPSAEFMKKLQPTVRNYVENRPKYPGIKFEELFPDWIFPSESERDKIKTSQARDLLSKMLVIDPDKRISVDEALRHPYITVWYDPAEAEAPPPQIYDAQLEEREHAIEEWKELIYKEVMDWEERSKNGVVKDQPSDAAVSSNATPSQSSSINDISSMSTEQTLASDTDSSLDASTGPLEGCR

Structure (SMILES): Cc1ccc2sc(N(CCCN(C)C)C(=O)c3ccc(Br)s3)nc2c1C
EC50 (Insulin-degrading enzyme [1]): > 54.7 µM (inactive)
EC50 (Insulin-degrading enzyme [2]): 20.1 µM (inactive)
EC50 [3]: 10.3 µM (active)
IC50 (HEK293 [4]): 35.3 µM (inactive)
EC50 (HEK293 [5]): > 54.7 µM (inactive)
EC50 (Melanocortin receptor 4): > 89.2 µM (inactive)
EC50 [6]: 50.5 µM (active)

IC50 [7]: 2.57 µM (active)
IC50 [8]: 8.23 µM (active)
Structure (SMILES): Cc1ccc(Oc2c(Cl)cnn(Cc3cccc4ccccc34)c2=O)cc1

Ki [9]: > 2.51 µM (inactive)
Ki [10]: > 3.98 µM (inactive)
Ki [11]: > 3.16 µM (inactive)
Ki [12]: > 2.51 µM (inactive)
Ki [13]: > 3.16 µM (inactive)
Ki [14]: > 3.16 µM (inactive)
Ki [15]: > 6.31 µM (inactive)
Ki [16]: > 3.16 µM (inactive)
Ki [17]: > 3.98 µM (inactive)
Ki [18]: > 6.31 µM (inactive)
Ki (Activin receptor type-1): > 3.98 µM (inactive)
Ki [20]: > 5.01 µM (inactive)
Ki [21]: > 6.31 µM (inactive)
Ki [22]: > 5.01 µM (inactive)
Ki [23]: > 3.98 µM (inactive)
Ki [24]: > 5.01 µM (inactive)
Ki [25]: > 3.98 µM (inactive)
Ki (LIM domain kinase 1): > 3.16 µM (inactive)
Ki [26]: > 6.31 µM (inactive)
Ki [27]: > 3.16 µM (inactive)
Ki [28]: > 3.98 µM (inactive)
Ki [29]: > 2.51 µM (inactive)
Ki [30]: > 2.51 µM (inactive)
Ki (Activated CDC42 kinase 1): > 3.98 µM (inactive)
Ki [31]: > 3.16 µM (inactive)
Ki [32]: > 3.16 µM (inactive)
Ki [33]: > 2.51 µM (inactive)
Ki [34]: > 2.51 µM (inactive)
Ki [35]: > 3.98 µM (inactive)
Ki [36]: > 3.16 µM (inactive)
Ki [37]: > 2.51 µM (inactive)
Ki [38]: > 2.51 µM (inactive)
Ki [39]: > 3.16 µM (inactive)
Ki [40]: 0.2 µM (active)
Ki [41]: > 2.51 µM (inactive)
Ki (Aurora kinase B): > 3.98 µM (inactive)
Ki [42]: 3.16 µM (active)
Ki [43]: > 6.31 µM (inactive)
Ki [44]: > 3.16 µM (inactive)
Ki [45]: > 3.98 µM (inactive)
Ki [46]: > 3.98 µM (inactive)
Ki [47]: > 3.98 µM (inactive)
Ki [48]: > 3.98 µM (inactive)
Ki [49]: > 3.98 µM (inactive)
Ki [50]: > 2.51 µM (inactive)
Ki [51]: > 3.98 µM (inactive)
Ki [52]: > 2.51 µM (inactive)
Ki [53]: > 3.98 µM (inactive)
Ki [54]: > 3.16 µM (inactive)
Ki [55]: > 3.98 µM (inactive)
Ki [56]: > 2.51 µM (inactive)
Ki [57]: > 3.98 µM (inactive)
Structure (SMILES): Cc1cc(OCc2ccc(Cl)c(Cl)c2)ccc1CN1CC(C(=O)O)C1
Ki [19]: > 5.01 µM (inactive)
